Source: PMC12455130, “Multifunctional molecular agent for tau-targeted combinational therapy of Alzheimer’s disease” (The Journal of Biological Chemistry, 2025)

Columns and labels:
tau peptide R3 = molecular target: T1, tau peptide R3 (Homo sapiens, UniProt P10636); assay: ThS assay, heparin-induced R3 aggregation (kinetics and dose-response); format: biochemical; settings: for IC50: 3 h at 37 °C, ThS fluorescence; for inhibition of R3 assembly (ThS kinetics): 5, 10 and 40 μM, 15 μM R3, heparin
T1 construct: R3 (^306VQIVYK PVDLSK VTSKCG SLGNIH HKPGGG Q^336) and rabbit anti-tau antibody were purchased from MuJin; purchased MuJin
Description: The inhibition effect of 4GA–2GA on R3 aggregation was explored by thioflavin S (ThS) assay ([24]). In general, the kinetics of R3 aggregation in the absence or the presence of 4GA, 2GA was assessed by measuring the emission intensity of ThS at 500 nm, which reflects the amount of R3 aggregates. As the control experiments, the aggregation kinetics of 4ME and GA were also carried out. While induced by heparin, R3 aggregates rapidly at 37 °C, and the fluorescence of ThS reaches a maximum after an average time of 200 s (Fig. 4A). Based on the aforementioned conditions, the inhibitory ability of our synthetic compounds at three different concentrations (5, 10, and 40 μM) was tested.
Next, the dose–response inhibitory effects of our synthetic compounds on R3 aggregation were investigated. The detailed experimental operation was descripted in ESI. […] The apparent values of IC50 were calculated according to the dose−response curve.
Tau peptide R3 was adjusted to a concentration of 15 μM using 50 mM Tris−HCl buffer (pH 7.4), ThS (final concentration of 10 μM), and different amounts of 4GA, 2GA, 4ME, and GA (final concentration of 0, 5, 10, and 40 μM) as the aggregation inhibitor were added in1to the reaction mixture. Aggregation was induced by adding heparin to the solution (final concentration of 3.8 μM); the kinetics of each sample was immediately monitored by a fluorescence spectrophotometer with a 10-mm quartz cell at 440/500 nm (excitation/emission). A circulating water bath was necessary to maintain the temperature at 37 °C.
Tau peptide R3 was adjusted to a concentration of 15 μM using 50 mM Tris–HCl buffer (pH 7.4). Different amounts of 4GA, 2GA, 4ME, and GA (final concentration of 0, 1, 2, 4, 6, 10, 15, 20, 30, 40, 60, or 80 μM) as the aggregation inhibitors were added into the reaction mixture. Aggregation was induced by adding heparin to the solution (final concentration of 3.8 μM), After 3 h incubation at 37°C, ThS (final concentration of 10 μM) was added, and the fluorescence intensity at 440/500 nm (excitation/emission) was recorded on Hitachi F-7000 with a 10-mm quartz cell. The dose−response inhibitory effects of R3 aggregation were expressed by the aggregation percentage, which was calculated according to the following (Formula 4.3):(4.3) aggregation%=F-F0/Ft-F0×100
where F0 = fluorescence intensity of R3 monomer, Ft = fluorescence intensity of R3 aggregate, and F = fluorescence intensity of R3 aggregate in the presence of inhibitors. The IC50 values were also calculated according to the dose−response inhibitory effects.
Tau peptide R3 was adjusted to a concentration of 15 μM using Tris−HCl buffer (pH 7.4), and the synthetic compounds (4GA, 2GA, together with 4ME, GA as the comparison) at different concentrations, as aggregation inhibitor, were added into the reaction mixture separately. Aggregation was induced by heparin, and incubated at 37 °C for 3 h. By introducing fluorescence probe ThS, the dose−response inhibitory effects on R3 aggregation were recorded, according to normalized ThS fluorescence intensity (excitation: 440 nm, emission: 500 nm).
Figure S14. Inhibitory effects of N-substituted Azacrown on heparin-induced R3 aggregation, exermined by ThS fluorescence: 15 μM R3 and 3.8 μM heparin with cyclen, 1ME, 2ME, 3ME, and 4ME (80 μM) was incubated respectively at 37°C for 3h. 10 μM ThS was added to each of the solution, Spectra of ThS fluorescence were recorded at Ex440 nm.

SK-N-SH cells [1] = assay: Cell rescue assay (CCK-8) against R3 aggregates / Cu2+; format: cell-based, human; settings: R3, heparin, Cu2+ preincubated with compound (20 μM), diluted 1:1, 24 h
Description: In this regard, we next evaluated the detoxification effect of 4GA and 2GA in the SK-N-SH cells treated with different components with possible cytotoxicity, including R3, R3 aggregates (R3 + heparin), Cu^2+, 4GA, 2GA, GA, and 4ME in indicated conditions, as shown in Figure 6B.
For cell rescue assay, 30 μM R3, 7.5 μM heparin was incubated in FBS–DMEM containing 7.5 μM Cu^2+ and different compounds (20 μM) at 37 °C for 1 h. Then, 500 μl of preincubated R3 solution was diluted with 500 μl fresh FBS–DMEM, and the mixture was used to replace the old medium after the cell attached to the 96-well plate. After cultured for 24 h, CCK-8 was used to measure the cell viability.

SK-N-SH cells [2] = assay: Intracellular ROS measurement (DCFH, flow cytometry and CLSM); format: cell-based, human; settings: 15 μM R3, 3.8 μM Cu2+, 10 μM compound; for ROS in SK-N-SH cells generated by R3–Cu2+ complex (flow cytometry): 24 h
Description: The flow cytometry and confocal laser scanning microscopy (CLSM) were used to show the intracellular ROS production. […] Consequently, the reductive phenolic hydroxyl groups might be a key factor for scavenging ROS triggered by R3–Cu^2+ complex.
SK-N-SH cells were seeded on a 12-well plate at a density of 1 × 10^5/well and incubated at 37 °C for 24 h, followed by treating with 15 μM R3 in the presence or the absence of 3.8 μM Cu^2+ in FBS-free DMEM. Two hours later, 10 μM 4GA/2GA/4ME/GA was added to the medium, respectively. After 24 h, the culture medium was removed, and 10 μM DCFH diacetate in FBS-free DMEM was added and incubated for 45 min at 37 °C. Samples were washed three times with PBS, and 4% polyformaldehyde was added and fixed at room temperature for 20 min. Cells were observed under a CLSM. For quantitative analysis, cells were harvested and washed three times with ice-cold PBS and resuspended in PBS. The fluorescence intensity of DCFH was analyzed by flow cytometry (CytoFLEX LX).

T1 sequence (P10636 623-653 limits assumed): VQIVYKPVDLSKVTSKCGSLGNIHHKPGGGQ

SMILES | IC50 (tau peptide R3; 15 μM R3, 3.8 μM heparin) [µM] | inhibition of R3 assembly (ThS kinetics) (tau peptide R3; 37 °C) | rescue of cell viability against R3 aggregates or Cu2+ (SK-N-SH cells [1]) | CLSM green fluorescence (intracellular ROS) (SK-N-SH cells [2]) | ROS in SK-N-SH cells generated by R3–Cu2+ complex (flow cytometry) (SK-N-SH cells [2]) | effect on heparin-induced R3 aggregation (ThS fluorescence at 500 nm) (tau peptide R3; 80 μM compound, 15 μM R3, 3.8 μM heparin, 37 °C, 3 h)
O=C(c1cc(O)c(O)c(O)c1)N1CCN(C(=O)c2cc(O)c(O)c(O)c2)CCN(C(=O)c2cc(O)c(O)c(O)c2)CCN(C(=O)c2cc(O)c(O)c(O)c2)CC1 [4GA, (1,4,7,10-tetraazacyclododecane-1,4,7,10-tetrayl)tetrakis((3,4,5-trihydroxyphenyl)methanone)] | 3.8 | strongly inhibited R3 assembly | dramatically elevates the cell viability | almost disappeared | appreciably decreased, almost to the control level | –
O=C(O)c1cc(O)c(O)c(O)c1 [GA, gallic acid, reference compound] | > 80 | – | only a limited rescue ability | almost disappeared | appreciably decreased, almost to the control level | –
CN1CCN(C)CCN(C)CCN(C)CC1 [4ME, 1,4,7,10-tetramethyl-1,4,7,10-tetraazacyclododecane, reference compound] | – | – | only a limited rescue ability | – | did not decrease | did not hinder the aggregation of R3 peptides
CN1CCN(C(=O)c2cc(O)c(O)c(O)c2)CCN(C)CCN(C(=O)c2cc(O)c(O)c(O)c2)CC1 [2GA, (4,10-dimethyl-1,4,7,10-tetraazacyclododecane-1,7-diyl)bis((3,4,5-trihydroxyphenyl)methanone)] | 5.5 | strongly inhibited R3 assembly | dramatically elevates the cell viability | almost disappeared | appreciably decreased, almost to the control level | –
